Where two headings read alike, the source gives them in different places.
What was measured:
Format in all cases: cell-based
[1] = tested on: S. aureus ATCC 29213 (methicillin sensitive); experiment: broth microdilution MIC assay, S. aureus ATCC 29213; details: Staphylococcus aureus, ATCC 29213 / MSSA
Experimental: (§1) To determine the ability of test compounds to potentiate the inhibition of the growth of bacterial strains, classic cell-based broth microdilution MIC assays were employed. MIC assays are performed according to CLSI methods except where otherwise noted (CLSI, 2011 and CLSI, 2009). The reference strains S. aureus ATCC 29213 (methicillin sensitive), S. aureus ATCC 33591 (methicillin-resistant), E. coli ATCC 25922 (wild-type/QC strain), P. aeruginosa ATCC 27853 (wild-type/QC strain), and the clinical isolate P. aeruginosa PA 8 were used to determine the ability of the exemplary carbapenem compounds to inhibit bacterial growth. An expanded panel of methicillin resistance S. aureus (MRSA) and Pseudomonas was also used to determine the ability of exemplary carbapenem compounds to inhibit bacterial growth across a broader representation of those species. To determine activity in MRSA and in addition to S. aureus ATCC 33591, S. aureus USA 300, USA 400 and USA 600, some of the most common clones found to cause human infection, were also used. To further gauge the impact on the carbapenem compounds due to various resistance mechanisms in Pseudomonas, the following strains were included: P. aeruginosa 35151 (hyper-permeable strain), P. aeruginosa AmexAB-OprM (an efflux pump knockout), and P. aeruginosa PA 3 (a clinical isolate of reduced carbapenem susceptibility). Briefly, cryo-preserved bacterial cultures of clinical strains are streaked for isolation on appropriate agar medium, in this case Mueller Hinton II agar. Following incubation to allow formation of colonies, these plates are sealed with parafilm and stored refrigerated for up to two weeks. For preparation of assay inocula and to ensure low variability, at least 5 colonies are picked from the agar plates with an inoculating loop and aseptically transferred to a culture tube containing 3 mL of Mueller-Hinton Broth (supplemented with divalent cations to required levels based on Manufacturers' specification). The broth culture is grown for 3-5 hours at 37° C. with shaking at 200 rpm. Meanwhile, 2-fold serial dilutions of test compounds are conducted in a 96 well plate with a final volume of 75 μL per well at 2-fold the final desired concentration. After the dilution plates are set up the growing cultures are then diluted in a cuvette containing MH II broth and the optical density is measured at 600 nm. Inocula are diluted such that 75 μL of this culture in Mueller-Hinton Broth results in a starting bacterial concentration of 5×10^5 CFU/mL when added to the dilution plates. The plates are incubated 16-20 hours at 37° C. The MIC is read visually as the lowest concentration well with no bacterial growth.
(§2) Representative results are shown in Tables 3, 4, and 5 where A represents an MIC>32 μg/mL, B represents an MIC between 8 and 32 μg/mL inclusive, C represents an MIC between 1 and 4 μg/mL inclusive, and D represents an MIC of <1 μg/mL. NT=Not Tested.

[2] = tested on: S. aureus ATCC 33591 (methicillin-resistant); experiment: broth microdilution MIC assay, S. aureus ATCC 33591; details: Staphylococcus aureus, ATCC 33591 / MRSA
Procedure, shortened: (§3)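 Growth inhibition was scored by eye after 16-20 h at 37 °C in Mueller-Hinton broth. Each well received 5×10^5 CFU/mL of log-phase culture plus compound from a 2-fold dilution series.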

[3] = tested on: E. coli ATCC 25922 (wild-type/QC strain); experiment: broth microdilution MIC assay, E. coli ATCC 25922; details: Escherichia coli
Procedure, shortened: as §3

[4] = tested on: P. aeruginosa ATCC 27853 (wild-type/QC strain); experiment: broth microdilution MIC assay, P. aeruginosa ATCC 27853; details: Pseudomonas aeruginosa
Procedure, shortened: as §3

[5] = tested on: clinical isolate P. aeruginosa PA 8; experiment: broth microdilution MIC assay, P. aeruginosa PA 8; details: Pseudomonas aeruginosa; Table 3; P. aeruginosa PA8
Experimental: as §1, §2

[6] = Table 3, S. aureus 29213 (MSSA), read-out: S. aureus 29213 (MSSA) MIC
[7] = Table 3, S. aureus 33591 (MRSA), read-out: S. aureus 33591 (MRSA) MIC
[8] = ATCC25922, Table 3, E. coli 25922, read-out: E. coli 25922 MIC
[9] = ATCC27853, Table 3, P. aeruginosa 27853, read-out: P. aeruginosa 27853 MIC

Row | MIC [1, 6] [µg/mL] | MIC [2, 7] [µg/mL] | MIC [3, 8] [µg/mL] | MIC [4, 9] [µg/mL] | MIC [5] [µg/mL] | Compound | MIC ([1]; read-out: S. aureus 29213 (MSSA) MIC (μg/mL)) [µg/mL] | MIC ([2]; read-out: S. aureus 33591 (MRSA) MIC (μg/mL)) [µg/mL] | MIC ([3]; ATCC25922, read-out: E. coli 25922 MIC (μg/mL)) [µg/mL] | MIC ([4]; ATCC27853, read-out: P. aeruginosa 27853 MIC (μg/mL)) [µg/mL]
1 | < 1 | 8 to 32 | < 1 | 1 to 4 | > 32 | C[C@@H](O)[C@H]1C(=O)N2C(C(=O)O)=C(S[C@H]3CCN(C4CCNCC4)C3)[C@H](C)[C@H]12 [Example 2, (4R,5S,6S)-6-((R)-1-hydroxyethyl)-4-methyl-7-oxo-3-(((S)-1-(piperidin-4-yl)pyrrolidin-3-yl)thio)-1-azabicyclo[3.2.0]hept-2-ene-2-carboxylic acid] |  |  |  | 
2 | < 1 | 8 to 32 | < 1 | 1 to 4 | 8 to 32 | C[C@@H](O)[C@H]1C(=O)N2C(C(=O)O)=C(S[C@@H]3CCN(C4CCCNC4)C3)[C@H](C)[C@H]12 (stereo partly drawn) [Example 4, (4R,5S,6S)-6-((R)-1-hydroxyethyl)-4-methyl-7-oxo-3-(((3R)-1-(piperidin-3-yl)pyrrolidin-3-yl)thio)-1-azabicyclo[3.2.0]hept-2-ene-2-carboxylic acid] |  |  |  | 
3 | < 1 | 8 to 32 | < 1 | 1 to 4 | 1 to 4 | C[C@@H](O)[C@H]1C(=O)N2C(C(=O)O)=C(S[C@@H]3CCN(C4CCNC4)C3)[C@H](C)[C@H]12 (stereo partly drawn) [Example 6, (4R,5S,6S)-3-(((3R)-[1,3′-bipyrrolidin]-3-yl)thio)-6-((R)-1-hydroxyethyl)-4-methyl-7-oxo-1-azabicyclo[3.2.0]hept-2-ene-2-carboxylic acid] |  |  |  | 
4 | < 1 | 1 to 4 | < 1 | 1 to 4 | 1 to 4 | C[C@@H](O)[C@H]1C(=O)N2C(C(=O)O)=C(S[C@@H]3CCN(CC4CCNCC4)C3)[C@H](C)[C@H]12 [Example 7, (4R,5S,6S)-6-((R)-1-hydroxyethyl)-4-methyl-7-oxo-3-(((R)-1-(piperidin-4-ylmethyl)pyrrolidin-3-yl)thio)-1-azabicyclo[3.2.0]hept-2-ene-2-carboxylic acid] |  |  |  | 
5 | < 1 | 1 to 4 | < 1 | 8 to 32 | 8 to 32 | C[C@@H](O)[C@H]1C(=O)N2C(C(=O)O)=C(S[C@@H]3CCN(C[C@H]4CCCN4)C3)[C@H](C)[C@H]12 [Example 8, (4R,5S,6S)-6-((R)-1-hydroxyethyl)-4-methyl-7-oxo-3-(((R)-1-(((R)-pyrrolidin-2-yl)methyl)pyrrolidin-3-yl)thio)-1-azabicyclo[3.2.0]hept-2-ene-2-carboxylic acid] |  |  |  | 
6 | < 1 | 8 to 32 | < 1 | 8 to 32 | 8 to 32 | C[C@@H](O)[C@H]1C(=O)N2C(C(=O)O)=C(S[C@@H]3CCN(Cc4ccncc4)C3)[C@H](C)[C@H]12 [Example 9, (4R,5S,6S)-6-((R)-1-hydroxyethyl)-4-methyl-7-oxo-3-(((R)-1-(pyridin-4-ylmethyl)pyrrolidin-3-yl)thio)-1-azabicyclo[3.2.0]hept-2-ene-2-carboxylic acid] |  |  |  | 
7 | < 1 | 8 to 32 | < 1 | 8 to 32 |  | C[C@@H](O)[C@H]1C(=O)N2C(C(=O)O)=C(S[C@@H]3CCN(Cc4cccnc4)C3)[C@H](C)[C@H]12 [Example 10, (4R,5S,6S)-6-((R)-1-hydroxyethyl)-4-methyl-7-oxo-3-(((R)-1-(pyridin-3-ylmethyl)pyrrolidin-3-yl)thio)-1-azabicyclo[3.2.0]hept-2-ene-2-carboxylic acid] |  |  |  | 
8 | < 1 | 1 to 4 | < 1 | 1 to 4 | 1 to 4 | C[C@@H](O)[C@H]1C(=O)N2C(C(=O)O)=C(S[C@@H]3CCN(CCC4CCNCC4)C3)[C@H](C)[C@H]12 [Example 11, (4R,5S,6S)-6-((R)-1-hydroxyethyl)-4-methyl-7-oxo-3-(((R)-1-(2-(piperidin-4-yl)ethyl)pyrrolidin-3-yl)thio)-1-azabicyclo[3.2.0]hept-2-ene-2-carboxylic acid] |  |  |  | 
9 | < 1 | 8 to 32 | < 1 | 8 to 32 |  | C[C@@H](O)[C@H]1C(=O)N2C(C(=O)O)=C(S[C@@H]3CCN(CC4CCCNC4)C3)[C@H](C)[C@H]12 (stereo partly drawn) [Example 12, (4R,5S,6S)-6-((R)-1-hydroxyethyl)-4-methyl-7-oxo-3-(((3R)-1-(piperidin-3-ylmethyl)pyrrolidin-3-yl)thio)-1-azabicyclo[3.2.0]hept-2-ene-2-carboxylic acid] |  |  |  | 
10 | < 1 | 8 to 32 | < 1 | 8 to 32 |  | C[C@@H](O)[C@H]1C(=O)N2C(C(=O)O)=C(S[C@@H]3CCN(CC4CCCCN4)C3)[C@H](C)[C@H]12 (stereo partly drawn) [Example 13, (4R,5S,6S)-6-((R)-1-hydroxyethyl)-4-methyl-7-oxo-3-(((3R)-1-(piperidin-2-ylmethyl)pyrrolidin-3-yl)thio)-1-azabicyclo[3.2.0]hept-2-ene-2-carboxylic acid] |  |  |  | 
11 | < 1 | 8 to 32 | < 1 | 8 to 32 |  | C[C@@H](O)[C@H]1C(=O)N2C(C(=O)O)=C(S[C@@H]3CCN(C[C@@H]4CCCN4)C3)[C@H](C)[C@H]12 [Example 14, (4R,5S,6S)-6-((R)-1-hydroxyethyl)-4-methyl-7-oxo-3-(((R)-1-(((S)-pyrrolidin-2-yl)methyl)pyrrolidin-3-yl)thio)-1-azabicyclo[3.2.0]hept-2-ene-2-carboxylic acid] |  |  |  | 
12 | < 1 | 8 to 32 | < 1 | 8 to 32 |  | C[C@@H](O)[C@H]1C(=O)N2C(C(=O)O)=C(S[C@@H]3CCN(CC4(C)CCNCC4)C3)[C@H](C)[C@H]12 [Example 15, (4R,5S,6S)-6-((R)-1-hydroxyethyl)-4-methyl-3-(((R)-1-((4-methylpiperidin-4-yl)methyl)pyrrolidin-3-yl)thio)-7-oxo-1-azabicyclo[3.2.0]hept-2-ene-2-carboxylic acid] |  |  |  | 
13 |  |  |  |  |  | C[C@@H](O)[C@H]1C(=O)N2C(C(=O)O)=C(S[C@@H]3CCN(CC4(F)CCNCC4)C3)[C@H](C)[C@H]12 [Example 16, (4R,5S,6S)-3-(((R)-1-((4-fluoropiperidin-4-yl)methyl)pyrrolidin-3-yl)thio)-6-((R)-1-hydroxyethyl)-4-methyl-7-oxo-1-azabicyclo[3.2.0]hept-2-ene-2-carboxylic acid] | < 1 | 8 to 32 | < 1 | 8 to 32
14 | 1 to 4 | 8 to 32 | < 1 | 1 to 4 | 1 to 4 | CNCc1ccc(CN2CC[C@@H](SC3=C(C(=O)O)N4C(=O)[C@H]([C@@H](C)O)[C@H]4[C@H]3C)C2)cc1 [Example 19, (4R,5S,6S)-6-((R)-1-hydroxyethyl)-4-methyl-3-(((R)-1-(4-((methylamino)methyl)benzyl)pyrrolidin-3-yl)thio)-7-oxo-1-azabicyclo[3.2.0]hept-2-ene-2-carboxylic acid] |  |  |  | 
